Measured values taken from patent US20110136801A1, “Novel Compounds” (Dainippon Sumitomo Pharma Co. Ltd., priority 2009, published 2011).

Experiments:
Male Brown Norway rats = test: Antigen-induced pulmonary inflammation in a rat asthma model (eosinophils and Th2 cytokines in BALF); type: in vivo; conditions: BALF 48 hours after challenge
Procedure: Rats were sensitized and challenged to produce allergic airway inflammation in a similar manner to that described by Underwood et al (British Journal of Pharmacology 2002; 137: 263-275, 2002). Male Brown Norway rats were sensitized subcutaneously with ovalbumin (OVA) and aluminum hydroxide on day 0, and challenged with aerosolized OVA solution on day 14. The test compound was administered twice intratracheally 24 hours before and 24 hours after the OVA-challenge and bronchoalveolar lavage fluid (BALF) was collected 48 hours after the OVA-challenge. Then eosinophils and Th2 cytokines (IL-5 and IL-13) in the BALF were measured to evaluate efficacy of the test compounds of this invention.

human TLR7 = target: T1, human TLR7 (Homo sapiens, UniProt Q9NYK1); test: Human TLR7 Assay (SEAP reporter in HEK293 cells); type: cell-based; conditions: HEK293 cell line expressing human TLR7 and pNiFty2-SEAP reporter, overnight incubation at 37° C., 0.1% DMSO; read-out: hTLR7 EC50;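 also: Read-out is secreted alkaline phosphatase made under an NFkB/ELAM-1 composite promoter, reporting TLR7-triggered NFkB activation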
T1 construct: expressed in transfected cells; host or cells: HEK293 cell line stably expressing the pNiFty2-SEAP reporter plasmid; TLR7 in pUNO vector, blasticidin selection
T1 sequence (Q9NYK1 27-1049): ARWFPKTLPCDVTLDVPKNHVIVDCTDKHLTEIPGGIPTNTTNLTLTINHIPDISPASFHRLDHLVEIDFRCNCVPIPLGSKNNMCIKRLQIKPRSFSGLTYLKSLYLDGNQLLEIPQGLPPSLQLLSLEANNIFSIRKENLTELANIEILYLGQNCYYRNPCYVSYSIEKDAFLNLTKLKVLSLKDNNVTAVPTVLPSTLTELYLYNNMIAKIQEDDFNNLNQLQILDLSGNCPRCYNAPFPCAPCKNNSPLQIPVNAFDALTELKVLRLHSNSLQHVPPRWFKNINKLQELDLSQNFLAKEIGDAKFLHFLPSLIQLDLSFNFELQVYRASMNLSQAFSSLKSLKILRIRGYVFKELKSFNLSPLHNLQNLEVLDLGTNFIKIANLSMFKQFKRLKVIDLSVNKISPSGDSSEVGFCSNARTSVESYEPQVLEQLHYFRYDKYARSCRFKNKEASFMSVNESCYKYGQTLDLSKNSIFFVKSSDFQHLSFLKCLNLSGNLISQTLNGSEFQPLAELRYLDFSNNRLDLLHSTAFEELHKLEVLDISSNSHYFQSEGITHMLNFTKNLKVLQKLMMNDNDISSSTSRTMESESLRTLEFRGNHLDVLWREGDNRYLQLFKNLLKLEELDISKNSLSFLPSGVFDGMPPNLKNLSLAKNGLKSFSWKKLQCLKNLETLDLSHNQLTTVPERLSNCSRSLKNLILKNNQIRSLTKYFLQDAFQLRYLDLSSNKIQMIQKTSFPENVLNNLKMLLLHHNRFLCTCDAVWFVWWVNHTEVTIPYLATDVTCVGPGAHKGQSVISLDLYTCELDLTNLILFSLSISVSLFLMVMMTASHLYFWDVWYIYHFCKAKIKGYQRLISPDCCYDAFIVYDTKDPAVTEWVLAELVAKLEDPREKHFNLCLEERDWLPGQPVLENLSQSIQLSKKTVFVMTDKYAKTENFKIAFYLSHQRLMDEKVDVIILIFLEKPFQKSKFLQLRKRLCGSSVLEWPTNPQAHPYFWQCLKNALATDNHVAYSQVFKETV
Excerpt: The most common variant sequence of human TLR7 (represented by the EMBL sequence AF240467) was cloned into the mammalian cell expression vector pUNO and transfected into a HEK293 cell line already stably expressing the pNiFty2-SEAP reporter plasmid; integration of the reporter gene was maintained by selection with the antibiotic zeocin. Transfectants with stable TLR7 expression were selected using the antibiotic blasticidin. In this reporter cell-line, expression of secreted alkaline phosphatase (SEAP) is controlled by an NFkB/ELAM-1 composite promoter comprising five NFkB sites combined with the proximal ELAM-1 promoter. TLR signaling leads to the translocation of NFkB and activation of the promoter results in expression of the SEAP gene. TLR7-specific activation was assessed by determining the level of SEAP produced following overnight incubation of the cells at 37° C. with the standard compound in the presence of 0.1% (v/v) dimethylsulfoxide (DMSO). Concentration dependent induction of SEAP production by compounds was expressed as the concentration of compound which produced half of the maximal level of SEAP induction for that compound (EC50).

[1] = 0.1 mg/kg intratracheally 24 hours before and 24 hours after OVA-challenge
[2] = 1.0 mg/kg intratracheally 24 hours before and 24 hours after OVA-challenge
[3] = 0.01 mg/kg intratracheally 24 hours before and 24 hours after OVA-challenge
[4] = 0.03 mg/kg intratracheally 24 hours before and 24 hours after OVA-challenge
[5] = 0.3 mg/kg intratracheally 24 hours before and 24 hours after OVA-challenge

CCCCc1nc2c(N)nc3ccccc3c2n1CCCN(Cc1cccc(OCC(=O)OC)c1)C(=O)CN(C)C [Example 9, Methyl (3-{[[3-(4-amino-2-butyl-1H-imidazo[4,5-c]quinolin-1-yl)propyl](N,N-dimethylglycyl)amino]methyl}phenoxy)acetate]
Eosinophiles in BALF, inhibition (%) to OVA-Challenge control (Male Brown Norway rats; [1]): 53%
IL-5 in BALF, inhibition (%) to OVA-Challenge control (Male Brown Norway rats; [1]): 66%
IL-13 in BALF, inhibition (%) to OVA-Challenge control (Male Brown Norway rats; [1]): 89%
Eosinophiles in BALF, inhibition (%) to OVA-Challenge control (Male Brown Norway rats; [2]): 77%
IL-5 in BALF, inhibition (%) to OVA-Challenge control (Male Brown Norway rats; [2]): 72%
IL-13 in BALF, inhibition (%) to OVA-Challenge control (Male Brown Norway rats; [2]): 85%

CCN(CC)CC(=O)N(CCCn1c(CCOC)nc2c(N)nc3ccccc3c21)Cc1cccc(OCC(=O)OC)c1 [Example 20, Methyl (3-{[[3-(4-amino-2-(2-methoxyethyl)-1H-imidazo[4,5-c]quinolin-1-yl)propyl](N,N-diethylglycyl)amino]methyl}phenoxy)acetate]
EC50 (human TLR7): 31.7 nM
Eosinophiles in BALF, inhibition (%) to OVA-Challenge control (Male Brown Norway rats; [3]): 14%
IL-5 in BALF, inhibition (%) to OVA-Challenge control (Male Brown Norway rats; [3]): No effect
IL-13 in BALF, inhibition (%) to OVA-Challenge control (Male Brown Norway rats; [3]): No effect
Eosinophiles in BALF, inhibition (%) to OVA-Challenge control (Male Brown Norway rats; [1]): 56%
IL-5 in BALF, inhibition (%) to OVA-Challenge control (Male Brown Norway rats; [1]): No effect
IL-13 in BALF, inhibition (%) to OVA-Challenge control (Male Brown Norway rats; [1]): 22%

CCN(CC)CC(=O)N(CCCn1c(CCOC)nc2c(N)nc3ccccc3c21)Cc1cccc(OCC(=O)OC(C)C)c1F [Example 94, Isopropyl 2-{3-[(N-{3-[4-amino-2-(2-methoxyethyl)-1H-imidazo[4,5-c]quinolin-1-yl]propyl}-2-{diethylamino}acetamido)methy]-2-fluorophenoxy}acetate]
EC50 (human TLR7): 27.9 nM
Eosinophiles in BALF, inhibition (%) to OVA-Challenge control (Male Brown Norway rats; [1]): 68%
IL-5 in BALF, inhibition (%) to OVA-Challenge control (Male Brown Norway rats; [1]): 34%
IL-13 in BALF, inhibition (%) to OVA-Challenge control (Male Brown Norway rats; [1]): 50%
Eosinophiles in BALF, inhibition (%) to OVA-Challenge control (Male Brown Norway rats; [2]): 91%
IL-5 in BALF, inhibition (%) to OVA-Challenge control (Male Brown Norway rats; [2]): 90%
IL-13 in BALF, inhibition (%) to OVA-Challenge control (Male Brown Norway rats; [2]): 82%

CCOCc1nc2c(N)nc3ccccc3c2n1CCCN(Cc1cccc(OC(C)(C)C(=O)OC)c1)C(=O)CN(CC)CC [Example 163, Methyl 2-{3-[(N-{3-[4-amino-2-(ethoxymethyl)-1H-imidazo[4,5-c]quinolin-1-yl]propyl}-2-{diethylamino}acetamido)methyl]phenoxy}-2-methylpropanoate]
EC50 (human TLR7): 174 nM
Eosinophiles in BALF, inhibition (%) to OVA-Challenge control (Male Brown Norway rats; [4]): 45%
IL-13 in BALF, inhibition (%) to OVA-Challenge control (Male Brown Norway rats; [4]): 50%
Eosinophiles in BALF, inhibition (%) to OVA-Challenge control (Male Brown Norway rats; [5]): 65%
IL-13 in BALF, inhibition (%) to OVA-Challenge control (Male Brown Norway rats; [5]): 80%

CCN(CC)CC(=O)N(CCCn1c(CCOC)nc2c(N)nc3ccccc3c21)Cc1cccc(OCC(=O)OC2CCCC2)c1 [Example 80, Cyclopentyl 2-{3-[(N-{3-[4-amino-2-(2-methoxyethyl)-1H-imidazo[4,5-c]quinolin-1-yl]propyl}-2-{diethylamino}acetamido)methyl]phenoxy}acetate]
EC50 (human TLR7): 56.6 nM
Eosinophiles in BALF, inhibition (%) to OVA-Challenge control (Male Brown Norway rats; [1]): 15%
IL-5 in BALF, inhibition (%) to OVA-Challenge control (Male Brown Norway rats; [1]): No effect
IL-13 in BALF, inhibition (%) to OVA-Challenge control (Male Brown Norway rats; [1]): No effect
Eosinophiles in BALF, inhibition (%) to OVA-Challenge control (Male Brown Norway rats; [2]): 89%
IL-5 in BALF, inhibition (%) to OVA-Challenge control (Male Brown Norway rats; [2]): 91%
IL-13 in BALF, inhibition (%) to OVA-Challenge control (Male Brown Norway rats; [2]): 83%

CCOCc1nc2c(N)nc3ccccc3c2n1CCCN(Cc1cccc(OCC(=O)OC(C)C)c1)C(=O)CN(CC)CC [Example 161, Isopropyl 2-{3-[(N-{3-[4-amino-2-(ethoxymethyl)-1H-imidazo[4,5-c]quinolin-1-yl]propyl}-2-{diethylamino}acetamido)methyl]phenoxy}acetate]
EC50 (human TLR7): 262 nM
Eosinophiles in BALF, inhibition (%) to OVA-Challenge control (Male Brown Norway rats; [4]): 54%
IL-13 in BALF, inhibition (%) to OVA-Challenge control (Male Brown Norway rats; [4]): No effect
Eosinophiles in BALF, inhibition (%) to OVA-Challenge control (Male Brown Norway rats; [5]): 66%
IL-13 in BALF, inhibition (%) to OVA-Challenge control (Male Brown Norway rats; [5]): 64%

CCN(CC)CC(=O)N(CCCn1c(CCOC)nc2c(N)nc3ccccc3c21)Cc1cccc(OCC(=O)OC(C)C)c1 [Example 27, Isopropyl 2-{3-[(N-{3-[4-amino-2-(2-methoxyethyl)-1H-imidazo[4,5-c]quinolin-1-yl]propyl}-2-(diethylamino)acetamido)methyl]phenoxy}acetate]
EC50 (human TLR7): 66.1 nM
Eosinophiles in BALF, inhibition (%) to OVA-Challenge control (Male Brown Norway rats; [1]): 64%
IL-5 in BALF, inhibition (%) to OVA-Challenge control (Male Brown Norway rats; [1]): 41%
IL-13 in BALF, inhibition (%) to OVA-Challenge control (Male Brown Norway rats; [1]): 72%
Eosinophiles in BALF, inhibition (%) to OVA-Challenge control (Male Brown Norway rats; [2]): 89%
IL-5 in BALF, inhibition (%) to OVA-Challenge control (Male Brown Norway rats; [2]): 90%
IL-13 in BALF, inhibition (%) to OVA-Challenge control (Male Brown Norway rats; [2]): 88%

CCN(CC)CC(=O)N(CCCn1c(CCOC)nc2c(N)nc3ccccc3c21)Cc1cccc(OC(C)(C)C(=O)OC)c1 [Example 56, Methyl 2-{3-[(N-{3-[4-amino-2-(2-methoxyethyl)-1H-imidazo[4,5-c]quinolin-1-yl]propyl}-2-{diethylamino}acetamido)methyl]phenoxy}-2-methylpropanoate]
EC50 (human TLR7): 33.1 nM
Eosinophiles in BALF, inhibition (%) to OVA-Challenge control (Male Brown Norway rats; [1]): 78%
IL-5 in BALF, inhibition (%) to OVA-Challenge control (Male Brown Norway rats; [1]): 86%
IL-13 in BALF, inhibition (%) to OVA-Challenge control (Male Brown Norway rats; [1]): 89%
Eosinophiles in BALF, inhibition (%) to OVA-Challenge control (Male Brown Norway rats; [2]): 94%
IL-5 in BALF, inhibition (%) to OVA-Challenge control (Male Brown Norway rats; [2]): 99%
IL-13 in BALF, inhibition (%) to OVA-Challenge control (Male Brown Norway rats; [2]): 98%
